The source of these data is US9511073B2, “Aromatic amides and uses thereof” (TAXIS Pharmaceuticals, Inc., priority 2011, dated 2016).

Converted amounts (≈) assume the structure as drawn.

The experiment concerns Staphylococcus aureus (Isolate ID ATCC 29213). In words: Bacterial assay: MIC by broth microdilution or agar dilution (CLSI), S. aureus ATCC 29213. It counts as cell-based. The note with it: Staphylococcus aureus, ATCC29213, read-out: S. aureus MIC (μg/mL) Activity Range, S. aureus (ATCC29213). The method, boiled down:
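Activity is binned (A ≤0.25 μg/mL; B >0.25–1.0; C >1.0–16; D >16 μg/mL) from MICs determined per CLSI by broth microdilution or agar dilution, on S. aureus ATCC 29213 plus an FtsZ-G196A mutant strain.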
As for `COCCNC(=O)OCC(Oc1ccc(F)c(C(N)=O)c1F)c1nc(-c2ccc(C(F)(F)F)cc2)c(Br)o1` (stereo not shown) [Compound 164, 2-(5-bromo-4-(4-(trifluoromethyl)phenyl)oxazol-2-yl)-2-(3-carbamoyl-2,4-difluorophenoxy)ethyl (2-methoxyethyl)carbamate], the MIC lay in the range of 0.25 to 1 µg/mL (≈ 0.411 to 1.64 µM).

In the case of `COCCn1cnnc1CNC(=O)OCC(Oc1ccc(F)c(C(N)=O)c1F)c1nc(-c2ccc(C(F)(F)F)cc2)c(Br)o1` (stereo not shown) [Compound 206, 2-(5-bromo-4-(4-(trifluoromethyl)phenyl)oxazol-2-yl)-2-(3-carbamoyl-2,4-difluorophenoxy)ethyl ((4-(2-methoxyethyl)-4H-1,2,4-triazol-3-yl)methyl)carbamate], the MIC fell in the range of 1 to 16 µg/mL (≈ 1.45 to 23.2 µM).

On to `CNC(=O)C(Oc1ccc(F)c(C(N)=O)c1F)c1nc(-c2ccc(Cl)cc2)c(Cl)o1` (stereo not shown) [Compound 49, 3-(1-(5-chloro-4-(4-chlorophenyl)oxazol-2-yl)-2-(methylamino)-2-oxoethoxy)-2,6-difluorobenzamide], for which the MIC was 1 to 16 µg/mL (≈ 2.19 to 35.1 µM).

Consider `CCNC(=O)NCC(Oc1ccc(F)c(C(N)=O)c1F)c1nc(-c2ccc(C(F)(F)F)cc2)co1` (stereo not shown) [Compound 286, 3-(2-(3-ethylureido)-1-(4-(4-(trifluoromethyl)phenyl)oxazol-2-yl)ethoxy)-2,6-difluorobenzamide], for which the MIC is above 16 µg/mL.

Consider `NC(=O)c1c(F)ccc(O[C@H](CO)c2nc(-c3cncs3)c(Br)o2)c1F` [Compound 247B, (R)-3-(1-(5-bromo-4-(thiazol-5-yl)oxazol-2-yl)-2-hydroxyethoxy)-2,6-difluorobenzamide], for which the MIC is above 16 µg/mL.

With `NC(=O)c1c(F)ccc(OC(COC(=O)NCCc2c[nH]cn2)c2nc(-c3ccc(C(F)(F)F)cc3)c(Br)o2)c1F` (stereo not shown) [Compound 162, 2-(5-bromo-4-(4-(trifluoromethyl)phenyl)oxazol-2-yl)-2-(3-carbamoyl-2,4-difluorophenoxy)ethyl (2-(1H-imidazol-4-yl)ethyl)carbamate], the MIC lay within 1 to 16 µg/mL (≈ 1.55 to 24.8 µM).

On to `NC(=O)c1c(F)ccc(OC(COC(=O)CCC(=O)O)c2nc(-c3ccc(C(F)(F)F)cc3)c(Br)o2)c1F` (stereo not shown) [Compound 74, 4-(2-(5-bromo-4-(4-(trifluoromethyl)phenyl)oxazol-2-yl)-2-(3-carbamoyl-2,4-difluorophenoxy)ethoxy)-4-oxobutanoic acid], for which the MIC fell in the range of 1 to 16 µg/mL (≈ 1.65 to 26.3 µM).

On to `COc1ccc(-c2nc(C(CO)Oc3ccc(F)c(C(N)=O)c3F)oc2Br)cc1` (stereo not shown) [Compound 112, 3-(1-(5-bromo-4-(4-methoxyphenyl)oxazol-2-yl)-2-hydroxyethoxy)-2,6-difluorobenzamide], for which the MIC was 1 to 16 µg/mL (≈ 2.13 to 34.1 µM).

`Cc1noc(-c2ccc(-c3nc(C(CO)Oc4ccc(F)c(C(N)=O)c4F)oc3Br)cc2)n1` (stereo not shown) [Compound 85, 3-(1-(5-bromo-4-(4-(3-methyl-1,2,4-oxadiazol-5-yl)phenyl)oxazol-2-yl)-2-hydroxyethoxy)-2,6-difluorobenzamide]: the MIC fell in the range of 1 to 16 µg/mL (≈ 1.92 to 30.7 µM).

`CC(=O)OCC(Oc1ccc(F)c(C(N)=O)c1F)c1nc(-c2ccc(Cl)cc2)c(Cl)o1` (stereo not shown) [Compound 46, 2-(3-carbamoyl-2,4-difluorophenoxy)-2-(5-chloro-4-(4-chlorophenyl)oxazol-2-yl)ethyl acetate]: the MIC was in the range of 0.25 to 1 µg/mL.

Regarding `NC(=O)c1c(F)ccc(OC(c2cccnc2)c2nc(-c3ccc(Cl)cc3)c(Br)o2)c1F` (stereo not shown) [Compound 99, 3-((5-bromo-4-(4-chlorophenyl)oxazol-2-yl)(pyridin-3-yl)methoxy)-2,6-difluorobenzamide], the MIC was in the range of 1 to 16 µg/mL (≈ 1.92 to 30.7 µM).

On to `CN(Cc1ccncc1)C(=O)OCC(Oc1ccc(F)c(C(N)=O)c1F)c1nc(-c2ccc(C(F)(F)F)cc2)c(Br)o1` (stereo not shown) [Compound 186, 2-(5-bromo-4-(4-(trifluoromethyl)phenyl)oxazol-2-yl)-2-(3-carbamoyl-2,4-difluorophenoxy)ethyl methyl(pyridin-4-ylmethyl)carbamate], for which the MIC fell in the range of 0.25 to 1 µg/mL (≈ 0.381 to 1.53 µM).

As for `CSc1ccc(OC(CO)c2nc(-c3ccc(C(F)(F)F)cc3)c(SC)o2)c(F)c1C(N)=O` (stereo not shown) [Compound 270, 2-fluoro-3-(2-hydroxy-1-(5-(methylthio)-4-(4-(trifluoromethyl)phenyl)oxazol-2-yl)ethoxy)-6-(methylthio)benzamide], the MIC was above 16 µg/mL.

For the compound `Cn1ccnc1CNC(=O)OCC(Oc1ccc(F)c(C(N)=O)c1F)c1nc(-c2ccc(C(F)(F)F)cc2)c(Br)o1` (stereo not shown) [Compound 201, 2-(5-bromo-4-(4-(trifluoromethyl)phenyl)oxazol-2-yl)-2-(3-carbamoyl-2,4-difluorophenoxy)ethyl ((1-methyl-1H-imidazol-2-yl)methyl)carbamate], the MIC is 0.25 to 1 µg/mL (≈ 0.388 to 1.55 µM).

As to `NC(=O)c1c(F)ccc(OC(CO)c2nc(-c3ccc(C(=O)O)cc3)c(Br)o2)c1F` (stereo not shown) [Compound 251, 4-(5-bromo-2-(1-(3-carbamoyl-2,4-difluorophenoxy)-2-hydroxyethyl)oxazol-4-yl)benzoic acid], the MIC is above 16 µg/mL.

Consider `CC(=O)NNC(=O)CC(Oc1ccc(F)c(C(N)=O)c1F)c1nc(-c2ccc(C(F)(F)F)cc2)c(Br)o1` (stereo not shown) [Compound 100, 3-(3-(2-acetylhydrazinyl)-1-(5-bromo-4-(4-(trifluoromethyl)phenyl)oxazol-2-yl)-3-oxopropoxy)-2,6-difluorobenzamide], for which the MIC fell in the range of 1 to 16 µg/mL (≈ 1.69 to 27.1 µM).

In the case of `NC(=O)c1c(F)ccc(OC(CCCO)c2nc(-c3ccc(C(F)(F)F)cc3)c(Br)o2)c1F` (stereo not shown) [Compound 90, 3-(1-(5-bromo-4-(4-(trifluoromethyl)phenyl)oxazol-2-yl)-4-hydroxybutoxy)-2,6-difluorobenzamide], the MIC was in the range of 0.25 to 1 µg/mL (≈ 0.467 to 1.87 µM).

On to `NC(=O)c1c(F)ccc(OC(COC2CCCCO2)c2nc(-c3ccc(C(F)(F)F)cc3)c(Br)o2)c1F` (stereo not shown) [Compound 105, 3-(1-(5-bromo-4-(4-(trifluoromethyl)phenyl)oxazol-2-yl)-2-((tetrahydro-2H-pyran-2-yl)oxy)ethoxy)-2,6-difluorobenzamide], for which the MIC was in the range of 0.25 to 1 µg/mL (≈ 0.423 to 1.69 µM).

With `Cc1nc(-c2nc(C(CO)Oc3ccc(F)c(C(N)=O)c3F)oc2Br)sc1C` (stereo not shown) [Compound 240, 3-(1-(5-bromo-4-(4,5-dimethylthiazol-2-yl)oxazol-2-yl)-2-hydroxyethoxy)-2,6-difluorobenzamide], the MIC was above 16 µg/mL.

On to `Cc1c(CNC(=O)OCC(Oc2ccc(F)c(C(N)=O)c2F)c2nc(-c3ccc(C(F)(F)F)cc3)c(Br)o2)cnn1C` (stereo not shown) [Compound 205, 2-(5-bromo-4-(4-(trifluoromethyl)phenyl)oxazol-2-yl)-2-(3-carbamoyl-2,4-difluorophenoxy)ethyl ((1,5-dimethyl-1H-pyrazol-4-yl)methyl)carbamate], for which the MIC lay in the range of 0.25 to 1 µg/mL (≈ 0.38 to 1.52 µM).

For the compound `COC(=O)c1ccc(-c2nc(C(CO)Oc3ccc(F)c(C(N)=O)c3F)oc2Br)cc1` (stereo not shown) [Compound 246, methyl 4-(5-bromo-2-(1-(3-carbamoyl-2,4-difluorophenoxy)-2-hydroxyethyl)oxazol-4-yl)benzoate], the MIC fell in the range of 1 to 16 µg/mL (≈ 2.01 to 32.2 µM).

Turning to `Cc1ncccc1CNC(=O)OCC(Oc1ccc(F)c(C(N)=O)c1F)c1nc(-c2ccc(C(F)(F)F)cc2)c(Br)o1` (stereo not shown) [Compound 215, 2-(5-bromo-4-(4-(trifluoromethyl)phenyl)oxazol-2-yl)-2-(3-carbamoyl-2,4-difluorophenoxy)ethyl ((2-methylpyridin-3-yl)methyl)carbamate], the MIC lay within 0.25 to 1 µg/mL (≈ 0.381 to 1.53 µM).
